Data reported in PMC11500415, “Chemical inhibition of stomatal differentiation by perturbation of the master-regulatory bHLH heterodimer via an ACT-Like domain” (Nature Communications, 2024).
Several values for one entry are separate records, joined by “and”; a condition that tells them apart may be missing. Equal entries are not always repeated.

Experiments:
[1] = system: stomatal movement; parameters: method as in PMID 35042960; details: previous chemical screens and SAR studies; cited from earlier work
[2] = biological target: T1, SCRM2-MUTE heterodimer (Arabidopsis thaliana, UniProt Q9M8K6); experiment: Ratiometric BiFC in N. benthamiana leaves; format: cell-based; details: MUTE-SCRM2 pair, STOMI-treated, rescaled, average of 20; DMSO 0.692877
T1 construct: heterodimerization of SCRM with full-length SPCH, MUTE, or FAMA in the context of the plant cells; nYFP (N terminus of EYFP, 174 amino acids); expressed in transfected cells; host or cells: Nicotiana benthamiana leaves (Agrobacterium infiltration)
Source text: (§1) For ratiometric BiFC assays, the cDNAs of SPCH, MUTE, and FAMA were cloned into the 35S CaMV promoter-driven destination vector pSPYNE, which contains the N terminus of the EYFP protein (nYFP-174 amino acids), while the cDNA of SCRM and SCRM2 was inserted into pSPYCE, which contains the C terminus of the EYFP protein (cYFP-64 amino acids) (see Supplementary Table 5 for detailed information of the constructs). The constructs were then transformed into Agrobacterium tumefaciens strain GV3101. The Agrobacterium was resuspended in infiltration buffer (10 mM MgCl2, 10 mM 2-(N-morpholino)ethanesulfonic acid [pH 5.6], and 150 µM acetosyringone). Bacterial culture densities were adjusted to a final optical density (OD600) of 1.0, and the cell suspensions were incubated at room temperature for 4 hours prior to infiltration. Equal volumes of cultures carrying the corresponding complementary pair of BiFC constructs (YFPn and YFPc), along with CaMV35S::Histone H2B-mScarlet-I3 and the silencing suppressor plasmid p19 (a gift from Dr. Sir David Baulcombe) were mixed and then co-infiltrated into 4-week-old N. benthamiana leaves. The infiltrated N. benthamiana leaves were incubated at 25 °C for 2 days. Subsequently, leaf discs were cut out and cultured in mock or in liquid 1/2 MS media in mock (DMSO) or 100 µM Stomidazolone for 1 day. Confocal imaging of N. benthamiana leaves was performed using a Leica SP8 confocal microscope using a 20X objective lens (Leica Microsystems), simultaneously capturing YFP (excitation at 518 nm and emission at 530 nm) and mScarlet-I3 (excitation at 569 nm and emission at 600 nm) differential interference contrast channels.

[3] = biological target: T2, SCRM2-FAMA heterodimer (Arabidopsis thaliana, UniProt Q56YJ8); experiment: Ratiometric BiFC in N. benthamiana leaves; format: cell-based; details: FAMA-SCRM2 pair, STOMI-treated, rescaled, average of 20; DMSO 0.813227
T2 construct: heterodimerization of SCRM with full-length SPCH, MUTE, or FAMA in the context of the plant cells; we performed rBiFC assays using full-length SCRM2; nYFP (N terminus of EYFP, 174 amino acids); cYFP (C terminus of EYFP, 64 amino acids); expressed in transfected cells; host or cells: Nicotiana benthamiana leaves (Agrobacterium infiltration)
Source text: as §1

[4] = biological target: T3, SCRM2-SPCH heterodimer (Arabidopsis thaliana, UniProt Q700C7); experiment: Ratiometric BiFC in N. benthamiana leaves; format: cell-based; details: SPCH-SCRM2 pair, STOMI-treated, rescaled, average of 20; DMSO 0.870846
T3 construct: heterodimerization of SCRM with full-length SPCH, MUTE, or FAMA in the context of the plant cells; we performed rBiFC assays using full-length SCRM2; nYFP (N terminus of EYFP, 174 amino acids); cYFP (C terminus of EYFP, 64 amino acids); expressed in transfected cells; host or cells: Nicotiana benthamiana leaves (Agrobacterium infiltration)
Source text: as §1

[5] = biological target: T4, SCRM-MUTE heterodimer (Arabidopsis thaliana, UniProt Q9M8K6); experiment: Ratiometric BiFC in N. benthamiana leaves; format: cell-based; details: BiFC MUTE+SCRM, STOMI-treated, individual measurements
T4 construct: expressed in transfected cells; host or cells: yeast strain AH109
T4 sequence (Q9M8K6 1-202): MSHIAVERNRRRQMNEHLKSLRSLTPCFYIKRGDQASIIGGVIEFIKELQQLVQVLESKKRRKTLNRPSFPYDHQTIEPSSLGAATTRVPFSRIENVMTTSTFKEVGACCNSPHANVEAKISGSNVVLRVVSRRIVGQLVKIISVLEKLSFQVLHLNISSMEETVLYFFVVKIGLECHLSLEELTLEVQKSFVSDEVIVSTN
Source text: as §1

[6] = biological target: T5, SCRM-FAMA heterodimer (Arabidopsis thaliana, UniProt Q56YJ8); experiment: Ratiometric BiFC in N. benthamiana leaves; format: cell-based; details: BiFC FAMA+SCRM, STOMI-treated, individual measurements
T5 construct: heterodimerization of SCRM with full-length SPCH, MUTE, or FAMA in the context of the plant cells; combinations of split YFP constructs fused to the full-length stomatal bHLH proteins; nYFP (N terminus of EYFP, 174 amino acids); cYFP (C terminus of EYFP, 64 amino acids); expressed in transfected cells; host or cells: Nicotiana benthamiana leaves (Agrobacterium infiltration)
T5 sequence (Q56YJ8 1-414): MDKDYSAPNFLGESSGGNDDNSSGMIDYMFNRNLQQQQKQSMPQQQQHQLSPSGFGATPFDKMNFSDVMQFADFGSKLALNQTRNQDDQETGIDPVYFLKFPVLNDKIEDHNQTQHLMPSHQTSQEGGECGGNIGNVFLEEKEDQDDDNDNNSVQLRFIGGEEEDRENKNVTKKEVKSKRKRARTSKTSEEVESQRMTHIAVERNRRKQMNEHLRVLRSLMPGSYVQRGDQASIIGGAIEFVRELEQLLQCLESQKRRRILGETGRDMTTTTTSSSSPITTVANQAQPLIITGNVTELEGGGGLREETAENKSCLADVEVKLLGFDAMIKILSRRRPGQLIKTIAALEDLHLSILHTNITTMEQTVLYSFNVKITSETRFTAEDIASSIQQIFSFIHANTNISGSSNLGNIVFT
Source text: as §1

[7] = biological target: T6, empty+SCRM (control) (Arabidopsis thaliana, UniProt Q9LSE2); experiment: Ratiometric BiFC, control empty+SCRM; format: cell-based; details: STOMI-treated, individual measurements
T6 construct: split YFP constructs fused to the full-length stomatal bHLH proteins; expressed in transfected cells; host or cells: Nicotiana benthamiana leaves (Agrobacterium infiltration)
T6 sequence (Q9LSE2 1-494): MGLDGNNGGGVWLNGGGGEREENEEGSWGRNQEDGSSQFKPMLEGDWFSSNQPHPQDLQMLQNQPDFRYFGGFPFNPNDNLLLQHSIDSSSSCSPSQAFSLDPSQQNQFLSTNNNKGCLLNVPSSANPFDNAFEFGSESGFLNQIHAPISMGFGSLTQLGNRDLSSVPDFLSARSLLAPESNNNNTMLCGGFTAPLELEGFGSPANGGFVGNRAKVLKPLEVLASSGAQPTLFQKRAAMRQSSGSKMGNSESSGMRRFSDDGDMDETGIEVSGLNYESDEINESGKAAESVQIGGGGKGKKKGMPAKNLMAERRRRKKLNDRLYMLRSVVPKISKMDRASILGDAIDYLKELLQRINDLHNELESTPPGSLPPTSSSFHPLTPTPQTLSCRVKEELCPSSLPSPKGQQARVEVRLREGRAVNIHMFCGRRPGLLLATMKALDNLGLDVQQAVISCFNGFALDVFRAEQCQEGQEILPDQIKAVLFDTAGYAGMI

[8] = biological target: T7, SCRM-SPCH heterodimer (Arabidopsis thaliana, UniProt Q700C7); format: cell-based; details: STOMI-treated
T7 construct: heterodimerization of SCRM with full-length SPCH, MUTE, or FAMA in the context of the plant cells; combinations of split YFP constructs fused to the full-length stomatal bHLH proteins; nYFP (N terminus of EYFP, 174 amino acids); cYFP (C terminus of EYFP, 64 amino acids); expressed in transfected cells; host or cells: Nicotiana benthamiana leaves (Agrobacterium infiltration)
T7 sequence (Q700C7 1-364): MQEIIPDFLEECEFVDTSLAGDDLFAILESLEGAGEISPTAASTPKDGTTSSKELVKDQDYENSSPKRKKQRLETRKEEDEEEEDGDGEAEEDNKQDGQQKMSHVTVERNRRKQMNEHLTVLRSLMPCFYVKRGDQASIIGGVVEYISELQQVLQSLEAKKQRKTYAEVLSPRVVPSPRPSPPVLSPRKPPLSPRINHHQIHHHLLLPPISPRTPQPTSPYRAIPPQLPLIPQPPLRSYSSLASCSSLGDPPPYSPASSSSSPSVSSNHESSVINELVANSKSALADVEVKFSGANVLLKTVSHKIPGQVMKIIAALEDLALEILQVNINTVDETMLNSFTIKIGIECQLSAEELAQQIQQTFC
Source text: as §1

[9] = BiFC SPCH+SCRM, individual measurements

SMILES	effect on stomatal movement (in words) [1]	BiFC YFP/mScarlet signal intensity ratio, average [2]	BiFC YFP/mScarlet signal intensity ratio, average [3]	BiFC YFP/mScarlet signal intensity ratio, average [4]	YFP [5]	YFP/mScarlet [5]	mScarlet [5]	YFP [6]	YFP/mScarlet [6]	mScarlet [6]	YFP [7]	YFP/mScarlet [7]	mScarlet [7]	YFP [8, 9]	mScarlet [8, 9]	BiFC YFP/mScarlet signal intensity ratio, average ([8]; SPCH-SCRM pair, rescaled, average of 20, DMSO 0.999748)
O=S(=O)(c1ccccc1)N(c1oc(-c2ccccc2)nc1-c1ccccc1)S(=O)(=O)c1ccccc1 [SIM1]	inhibit stomatal movement															
O=C1C(c2ccccc2)=NC(NS(=O)(=O)c2ccccc2)(c2ccccc2)N1S(=O)(=O)c1ccccc1 (racemic) [STOMI]		0.1063	0.1443	0.1468	1.16E+01 and 3.104 and 3.249 and 11.738 and 9.681 and 6.858	0.2554 and 0.01703 and 0.0181 and 0.2123 and 0.2385 and 0.1574	45.576 and 182.295 and 179.515 and 55.282 and 40.598 and 43.561	186.917 and 54.749 and 197.322 and 78.346 and 117.223 and 50.688	0.9773 and 1.064 and 0.9455 and 1.191 and 0.9038 and 0.8169	191.252 and 51.452 and 208.697 and 65.781 and 129.694 and 62.052	0.095 and 0.409 and 0 and 0.026 and 5.60E-04 and 0.042	0.0009064 and 0.01087 and 0 and 0.0008066 and 3.5039e-6 and 0.000976	104.805 and 37.637 and 55.755 and 32.234 and 159.765 and 43.034	42.813 and 234.339 and 61.532 and 61.417 and 224.742 and 142.963	36.031 and 235.498 and 75.919 and 70.723 and 231.024 and 153.918	0.9445
